Experimental data published in PubChem BioAssay AID179 (DTP/NCI, 2004).
Activity calls are given as the source filed them.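 How the source made its calls: active means compounds giving half or more protection of infected cells from virus-caused growth loss, again on retest; inactive means the rest.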 Where a SMILES comes first, the peptide text is derived from it. [ ]: non-standard residue; d: D form. Phe(4-NO2) = N[CH](Cc1ccc([N+](=O)[O-])cc1)C(=O)O

Test system: CEM cells HIV-1 protection, formazan growth assay
Experiment: NCI AIDS Antiviral Assay
Conditions: for IC50: measured here: growth of uninfected CEM cells
Method in brief: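 Protection of CEM cells against HIV-1 was scored from cell growth (soluble formazan) across five concentrations, with parallel uninfected cells. Lack of protection may reflect toxicity.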

| Structure (SMILES) | EC50 [µM] | IC50 [µM] | outcome |
| --- | --- | --- | --- |
| O=C1NC(O)CCN1C1OC(CO)C(O)C1O (configuration not stated) | > 200 | > 200 |  |
| C=CCn1c(N)c(C#N)c(C#N)c1-c1ccccc1 | > 200 | > 200 |  |
| Cc1ccc2oc(=O)c(C#N)c(/C=C/c3cccc(Br)c3)c2c1 | > 100 | > 100 |  |
| O=c1c(-c2ccccc2)c2oc(c1-c1ccccc1)CSCc1cccc(c1)CSC2 | > 1.7 | > 1.7 |  |
| NCCCNCCSSCCNCCCN | > 200 | 10.5 |  |
| COc1cccc2c1C1(O)C2CCCCCCCCCC12OCCCO2 (configuration not stated) | > 91.2 | 69.2 |  |
| c1ccc(NNN2NC(c3ccccc3)C2c2ccccc2)cc1 (configuration not stated) | > 200 | > 200 |  |
| Oc1cc(C2OCCCO2)cc(O)c1O | > 229 | 191 |  |
| Nc1ncnc2c1ncn2C1C=CC(CP(=O)(O)O)C1 (configuration not stated) | > 200 | > 200 |  |
| O=S(O)c1cc(Cl)c(O)c(Cl)c1 |  |  | inactive |
| CC#CCCC1(C)CCCCN(C(=O)OC(C)C)C1OCC (configuration not stated) | > 43.7 | > 43.7 |  |
| CCc1cc2c(cc1C(=O)CCC(=O)O)CC1(C2)Cc2cc(CC)c(C(=O)CCC(=O)O)cc2C1 | > 200 | 107 |  |
| COC(=O)CC1CC2(C(=O)OC)c3[nH]c4ccccc4c3CCN2C1=O (configuration not stated) | > 224 | > 224 |  |
| O=c1c2cc(-c3ccccc3)cnc2sn1-c1ccc([N+](=O)[O-])cc1 | > 200 | 39.8 |  |
| O=C1[C@@H]2C(c3ccncc3)=NO[C@@H]2C(=O)N1c1ccc(Cc2ccc(N3C(=O)[C@H]4C(c5ccncc5)=NO[C@H]4C3=O)cc2)cc1 | > 12 | > 12 |  |
| CC(C)(C)OC(=O)NC(Cc1ccc(OC(C)(C)C)cc1)C(=O)N[C@H]1CCC[C@H]1C(=O)NC(Cc1ccccc1)C(=O)N1CCCC1C(N)=O (some centres not stated) | > 100 | > 100 |  |
| N#CC1=C(O)NC(O)=C(C#N)C12C(=O)Nc1ccccc12 | > 794 | > 794 |  |
| CCCCCC(=O)N1SC(NC(=O)OC)=Nc2ccccc21 | > 155 | 8.32 |  |
| CCN(CC)C(=O)CCN1CC1 | > 200 | > 200 |  |
| CCN(CC)[Se]c1ccccc1 |  |  | inactive |
| C[C@@H]1OCN(C(=O)c2ccccc2SSc2ccccc2C(=O)N2CO[C@H](C)[C@H]2C(=O)O)[C@H]1C(=O)O | > 200 | > 200 |  |
| COc1ccc(C(=O)/C=C/c2ccc(OCCSCCCCCCCCCCSCCOc3ccc(/C=C/C(=O)c4ccc(OC)cc4)cc3)cc2)cc1 | > 200 | > 200 |  |

| Structure (SMILES) | EC50 [µM] | IC50 [µM] | outcome |
| --- | --- | --- | --- |
| CC1=CC2OC3CC4OC(=O)/C=C/C=C/C(=O)OCCC(C)C(O)C(=O)OCC2(CC1O)C4(C)C31CO1 (configuration not stated) | > 0.2 | 0.00347 |  |
| Cc1ccc(NC(=O)C2C(=O)N(c3ccc(C)c(C)c3)C(=O)/C2=N\NC(N)=O)cc1C (configuration not stated) |  |  | inactive |
| NC(=O)C12CC3CC(CC(Br)(C3)C1)C2 | > 977 | 891 |  |
| CN1C(=O)CC(Sc2ccccc2)c2ccccc21 (configuration not stated) | > 200 | 36.3 |  |
| O=c1c(O)c(-c2ccccc2)n(O)c2ccc(Cl)cc12 | > 18.2 | > 18.2 |  |
| CN(C)CC(/C(Cc1ccccc1)=N\NC(=O)c1ccncc1)c1ccccc1 (configuration not stated) | > 245 | 93.3 |  |
| CC(=O)N1c2ccccc2C2=NN=C(N(C)C)SC21 (configuration not stated) |  |  | inactive |
| Nc1c(S(=O)(=O)O)cc2cc(S(=O)(=O)O)ccc2c1N=Nc1ccc(-c2ccc(N=Nc3c(N)c(S(=O)(=O)O)cc4cc(S(=O)(=O)O)ccc34)c(S(=O)(=O)O)c2)cc1 |  |  | active |
| NNC(=O)C(=O)N/N=C(\CCC(=O)Nc1ccc(Cl)cc1)Cc1nc2ccccc2s1 | > 77.6 | 14.5 |  |
| CC(NC(=O)C(Cc1ccc([N+](=O)[O-])cc1)NC(=O)C(N)CCCCN)C(=O)NC(Cc1ccc([N+](=O)[O-])cc1)C(N)=O (configuration not stated) (H-K[Phe(4-NO2)]A[Phe(4-NO2)]-NH2; configuration not given here) | > 200 | > 200 |  |
| Cc1cc(NCCCCCCNc2cc(C)nc3cc(N(C)C)ccc23)c2ccc(N(C)C)cc2n1 |  |  | inactive |
| COC(=O)C12C3C4C5(C(=O)OC)C(C1C35C(=O)N(C(C)C)C(C)C)C42C(=O)N(C(C)C)C(C)C (configuration not stated) | > 55 | > 55 |  |
| CCCCCCCCCCCCCC/C=C\C(CC(=O)O)C(=O)O (configuration not stated) | > 15.1 | > 15.1 |  |
| COc1ccc(CCNC(=S)/N=C\C(C(=O)c2ccccc2)=C(\O)c2ccccc2)cc1OC |  |  | inactive |
| [B]C(=O)NC(CC(C)C)C(=O)NC1c2ccsc2C(=O)C1O (configuration not stated) (tested in a mixture with another compound) | > 200 | > 200 |  |
| COc1ccc(/C=C/C(=O)c2sc(NC(=S)NC(=O)c3ccc(Cl)cc3)nc2C)cc1OC | > 37.2 | > 37.2 |  |
| Nc1c(N=Nc2ccc([N+](=O)[O-])cc2)c(S(=O)(=O)O)cc2cc(S(=O)(=O)O)c(N=Nc3ccccc3)c(O)c12 | > 151 | > 151 |  |
| COc1cccc(/C=c2\[nH]c(=O)/c(=C/c3cccc(OC)c3OC)[nH]c2=O)c1OC | > 9.12 | > 9.12 |  |
| C=CCCCCCCCCC(=O)NCCN1CCOCC1 | > 200 | > 200 |  |
| CCOP(=S)(Nc1cccc(C(F)(F)F)c1)OCC | > 200 | 166 |  |
| COC(=O)C1(Cc2ccc3c(c2)CCC3)Cc2cc3c(cc2C1=O)CCC3 (configuration not stated) | > 200 | 30.9 |  |
| CCCCNc1nc2nc[nH]c2c(=O)[nH]1 | > 200 | > 200 |  |

| Structure (SMILES) | EC50 [µM] | IC50 [µM] | outcome |
| --- | --- | --- | --- |
| O=S(=O)(O)c1ccc2c(N=Nc3cccc4ccccc34)c(O)c(S(=O)(=O)O)cc2c1 |  |  | inactive |
| COc1ccc(/C=C2/NC(=S)N=C2Cl)cc1 | > 200 | > 200 |  |
| COc1cc2c(C)cc(=O)oc2cc1O | > 457 | 148 |  |
| NS(=O)(=O)c1ccc(NNC(=O)c2cccc3c(=O)c4ccccc4[nH]c23)cc1 | > 200 | 58.9 |  |
| CC(C)N1C(=O)C(C#N)=C(c2ccccc2)SC1c1ccccc1 (configuration not stated) | > 30.2 | > 30.2 |  |
| CC(C)C[S+]1C2=C([O-])CC(C)(C)CC2=Nc2ccccc21 (configuration not stated) | > 200 | > 200 |  |
| O=C(CCCCCCCCC(=O)N1C(=O)CC(=O)N(c2ccccc2)C1=S)N1C(=O)CC(=O)N(c2ccccc2)C1=S | > 200 | 123 |  |
| CCOC(=O)c1sc2c(C(=O)OCC)n3cc(C)cc(C)c3c2c1O |  |  | inactive |
| COc1ccc(OC)c(/C=C/c2ccc3ccccc3n2)c1 | > 24.5 | > 24.5 |  |
| Cc1c(C)c2ccc(O)cc2[nH]c1=O | > 200 | 182 |  |
| C=C1CC2CC(=O)C(O)C(C1)C2 (configuration not stated) | > 200 | > 200 |  |
| CCOC(=O)C(C(=O)c1ccccc1-c1ccccc1C(=O)O)=P(c1ccccc1)(c1ccccc1)c1ccccc1 | > 229 | 43.7 |  |
| c1csc(-c2cc(-c3ccsc3)c(-c3ccsc3)s2)c1 | > 200 | 148 |  |
| CCCCCCCCCCCCCCCC(=O)Nc1ccn(C2CCC(COP(=O)(O)OCC3OC(n4cc(C)c(=O)[nH]c4=O)CC3F)O2)c(=O)n1 (configuration not stated) | 0.0132 | 0.2 |  |
| O=C1c2ccccc2C(=O)C12CCc1ccccc12 |  |  | inactive |
| Cc1ccc2c(c1)C(=O)C(Cc1ccccc1C(=O)O)C2 (configuration not stated) | > 200 | 178 |  |
| COC(=O)Nc1nc2ccccc2c(=O)[nH]1 | > 200 | > 200 |  |
| CC1=C(C(=O)Nc2cc(=O)n(C)c(=O)n2C)C(c2ccc([N+](=O)[O-])cc2)C(C(=O)Nc2cc(=O)n(C)c(=O)n2C)=C(C)N1 | > 8.71 | > 8.71 |  |
| CC(C)O/N=C/c1cc(NC(=S)OC(C)C)ccc1Cl | 0.0447 | 22.9 |  |
| CC(C)(C)OC(=O)NCC(C#N)CNC(=O)OC(C)(C)C | > 603 | > 603 |  |
| CC(C)c1cc(=O)oc2c3c(ccc12)OC(C)(C)[C@H](OC(=O)C12CCC(C)(C(=O)O1)C2(C)C)[C@@H]3OC(=O)C12CCC(C)(C(=O)O1)C2(C)C (some centres not stated) | 0.324 | 33.9 |  |
| Cc1ccc(N(C(=[As]c2ccccc2)C(C)(C)C)[Si](C)(C)C)cc1 (configuration not stated) | > 18.2 | > 18.2 |  |

| Structure (SMILES) | EC50 [µM] | IC50 [µM] | outcome |
| --- | --- | --- | --- |
| CCO/C=C/C(C)C1(C(=O)OCC)CCCCC1=O (configuration not stated) | > 97.7 | > 97.7 |  |
| CSC(SC)=C(C(=O)O)P(=O)(O)O | > 200 | > 200 |  |
| CCN(CC)CCOc1ccc(/C(C#N)=C/c2cccc3ccccc23)cc1 | > 200 | 1.78 |  |
| CC1(c2cccc(N)c2)C2C(=O)NC(=O)C1C(=O)NC2=O (configuration not stated) | > 331 | 56.2 |  |
| NC1C2(CCCCCC2)NC(=O)C12CCCCCC2 (configuration not stated) |  |  | inactive |
| CCOC(=O)C1C(c2ccc(OC)cc2)C(C(=O)OCC)C(O)(C(F)(F)F)OC1(O)C(F)(F)F (configuration not stated) | > 257 | 151 |  |
| CN(C)c1ccc(/C=C2\CCc3ccccc3C2=O)cc1Br | > 10.7 | > 10.7 |  |
| COC(=O)[C@@](NC(=O)OCc1ccccc1)([C@H](C)O)C(F)(F)F | > 200 | 110 |  |
| Cc1cc(C)c2c(c1)CC1(Cc3c(C)cc(C)cc3C1=O)C2=O (configuration not stated) | > 100 | > 100 |  |
| O=C(O)c1ccc2c(c1)C(=O)N(c1ccc(Oc3ccc(N4C(=O)c5ccc(C(=O)O)cc5C4=O)cc3)cc1)C2=O |  |  | inactive |
| C=C1CC[C@@H](Br)C(C)(C)[C@]12CCC(C)(O)C(Cl)C2 (some centres not stated) | > 77.6 | > 77.6 |  |
| Cc1cccc([B-]23OCC[N+]2(CNC(=O)C2=C(O)C4(O)C(=O)C5=C(O)c6c(O)cccc6C(C)(O)C5CC4C(N(C)C)C2=O)CCO3)c1 (configuration not stated) | > 38.9 | > 38.9 |  |
| CC(C)Cc1ccc(C(C)C(=O)O)cc1 (configuration not stated) | > 1200 | 389 |  |
| CCOC(=O)c1nc2cc(C(F)(F)F)ccc2nc1Nc1ccc(OC)cc1 | > 126 | > 126 |  |
| O=C(Nc1nccs1)c1cc(C2=CC=CC([N+](=O)[O-])C=C2)nc(=S)[nH]1 (configuration not stated) | > 95.5 | > 95.5 |  |
| NCCc1ccc(O)c(O)c1 | > 200 | 132 |  |
| CCCCNC1=C(C(=O)OCC)C(=O)CO1 | > 794 | 447 |  |
| C[N+](C)(C)CC1CCCc2ccccc2C1=O (configuration not stated) |  |  | inactive |
| C=C1CN(C2=NCCO2)C1 | > 200 | > 200 |  |
